One experiment has as its system Wistar rats. Kind of experiment: Study 2 (reversal): oral glucose tolerance test and HOMA-IR. The class given is in vivo. The conditions noted are these: Study 2: 9 weeks high fat-high cholesterol diet, then 4 weeks treatment. The method, then: Study design: All animal procedures were approved by the Catholic University of Rome Institutional Animal Care Committee. The design of the studies is summarized in FIG. 18, Panels A and B. • Study 1: Twenty adult Wistar rats, aged 8-10 weeks, were included in the study. The rats were housed in individual cages at 22° C. with 12-h light cycles and had ad libitum access to food and water. Rats were fed a high-fat high-cholesterol diet (44% Carbohydrate, 14% Protein, 42% fat+0.2% Cholesterol) (Mucedola, Milan, IT) for four weeks in the presence or absence of 1% Dodecanedioic acid, sodium salt (w/vol) dissolved in the water (FIG. 18, Panel A). Body weight and food/water intake were monitored weekly. • Study 2: Twenty adult Wistar rats, aged 8-10 weeks, were included in the study. The rats were housed in individual cages at 22° C. with 12-h light cycles and had ad libitum access to food and water. Rats were fed a high-fat high-cholesterol diet (44% Carbohydrate, 14% Protein, 42% fat+0.2% Cholesterol) (Mucedola, Milan, IT). After nine weeks of diet, rats were randomly assigned to one of the following groups: Four weeks of high-fat high-cholesterol diet or four weeks of high-fat high-cholesterol diet and 1% Dodecanedioic acid, sodium salt (w/v) dissolved in the water FIG. 18, Panel B). Body weight and food/water intake were monitored weekly.
Oral Glucose Test Tolerance (OGTT): All animals underwent an OGTT at the end of the study. After an overnight fasting, the rats received a 50% D-glucose solution (1 g/kg body weight) by oral gavage. Blood samples were taken by tail bleeding and collected in EDTA tubes. All blood samples were immediately centrifuged, and plasma divided into appropriate subsamples and stored at −20° C. for further analysis. Blood glucose and was measured at 0, 20, 40, 60, 80, 100 and 120 minutes, while plasma insulin at 0, 60 and 120 minutes. Blood glucose levels were measured by glucometer (Accu-Chek, Roche Diagnostics Division, Grenzacherstrasse, CH). Plasma insulin was measured by ELISA (EMD Millipore Corporation, Billerica, MA), with a sensitivity of 0.1 ng/ml and an intra-and inter-assay precision of 1.9% and 7.6%, respectively.
DODA administration reverses insulin resistance and NASH: To assess if DODA could reverse the development of diet-induced insulin resistance and NASH, rats were first fed high fat high cholesterol diet for 9 weeks to develop insulin resistance and NASH. After 9 weeks of diet, DODA was administered for 4 weeks to assess insulin resistance and NASH reversal. Rats fed high fat high cholesterol diet without the administration of DODA were included as controls.
Panels A and B. • Study 1: Twenty adult Wistar rats, aged 8-10 weeks, were included in the study. The rats were housed in individual cages at 22° C. with 12-h light cycles and had ad libitum access to food and water. Rats were fed a high fat high cholesterol diet (44% Carbohydrate, 14% Protein, 42% fat+0.2% Cholesterol) for 4 weeks in the presence or absence of 1% Dodecanedioic acid, sodium salt dissolved in the water (FIG. 25, Panel A). Body weight and food/water intake were monitored weekly. • Study 2: Twenty adult Wistar rats, aged 8-10 weeks, were included in the study. The rats were housed in individual cages at 22° C. with 12-h light cycles and had ad libitum access to food and water. Rats were fed a high fat-high cholesterol diet (44% Carbohydrate, 14% Protein, 42% fat+0.2% Cholesterol). […] Body weight and food/water intake were monitored weekly. […]

A further experiment deals with SIRT1. Kind of experiment: SIRT1 levels in liver cells. The experiment is classed as cell-based. The conditions noted are these: AML-12 liver cells, 6 hours; p=0.127. An excerpt: To that end, the inventors used endothelial cells (EOMA cells) and liver cells (AML-12 cells) in vitro and quantified various markers in response to exposure of the cells to environmental challenge in the presence and absence of DDA at low concentrations. Unless indicated otherwise, the DDA concentration in the in vitro experiments was 5 mcg per microliter. More specifically, the inventors measured p-H2AX protein levels as a marker for DNA damage, PGC-1α protein levels as a marker for mitochondrial biogenesis, NAMPT enzyme levels as a marker for potential for NAD+ production, and total antioxidant capacity as a marker of cellular health. In addition, the inventors also measured global SIRT activity as a gauge of activity for all SIRT enzymes, and in particular SIRT1 enzyme levels as markers for autophagy and various beneficial processes associated with a caloric restricted diet, and SIRT3 levels as markers for mitochondrial function and longevity.
In still further experiments, the inventors also investigated whether or not DDDA could have stimulatory effects on selected SIRT proteins. More specifically, the inventors tested the effects of DDDA on SIRT3 and SIRT1, and exemplary results are shown in FIG. 9 and FIG. 10, respectively. […] N=5-6 plates per treatment. […] Beyond this trend, however, no other observations were evident. N=5-6 plates per treatment.

“Also recorded” adds a separate entry of the source.

The values that follow come from patent US20260053767A1, “Hepatoprotective Compositions And Methods” (Jemyll, Ltd., priority 2022, published 2026).

Take `O=C(O)CCCCCCCCCCC(=O)O` [DDDA, dodecanedioic acid]: in the experiment on Wistar rats (vs controls), the “blood glucose concentrations during an oral glucose tolerance test” value is “decrease”, the “insulin resistance as assessed by HOMA-IR” value was “reverse insulin resistance” and the “plasma insulin concentrations during an oral glucose tolerance test” value was “decrease”. Also, in the experiment on Wistar rats (listed as C12), the “diet-induced insulin resistance and NASH (overall, reversal)” value was “could reverse both diet-induced insulin resistance and NASH; also recorded: reverses diet-induced insulin resistance”. For the same molecule, in the experiment with Wistar rats (listed as DODA), the “diet-induced insulin resistance and NASH (overall, reversal)” value is “could reverse both diet-induced insulin resistance and NASH; also recorded: reverses diet-induced insulin resistance”. For the same molecule, in the experiment on SIRT1, the SIRT1 levels entry is reported as “trended upwards”.
